According to US20110151469A1, “INTERFERON EPSILON (IFNE1) AS A MARKER FOR TARGETED CANCER THERAPY” (PIRAMAL LIFE SCIENCES LIMITED, priority 2008, published 2011):

Experiments:
[1] = test system: IFNE1 gene in HCT116 xenografts; test: Oligonucleotide microarray expression profiling of IFNE1 in HCT116 xenografts treated with P276-00 or Flavopiridol; type: in vivo, SCID mice
Protocol: Colon carcinoma (HCT-116) cells were injected into severe combined immunodeficient (SCID) mice intraperitoneally. Xenografts were allowed to grow, typically for 7 days until the tumors reached a size of 5×5 mm before therapeutic agent administration. A total of 56 animals were used for the study. Animals that were treated with two consecutive day administrations of the agent/vehicle were considered as the acute treated group. The acute treated group of animals consisted of 8 sham treated, 10 Flavopiridol (2.5 mg/kg) treated, and P276-00 (35 mg/kg) treated mice. A similar group of animals was treated with either vehicle or agent for 6-7 days consecutively and was considered as the chronic treated group, as discussed below. The differences in the concentrations used reflect the differences in the IC50 values of the two therapeutic agents.
At the end of the acute/chronic treatments, the xenografts were excised from the animals and RNA was prepared using Trizol reagent (Sigma, USA) as per the manufacturer's protocol. Briefly, xenograft tissues were homogenized under liquid nitrogen and resuspended in Trizol ([…] tissue) followed by chloroform extraction. The RNA was precipitated in isopropanol and the pellet was washed using 70% ethanol. RNA samples thus obtained were resuspended in RNase-DNase free water. Quality and quantity of RNA was measured by spectrometry using ND-1000 spectrometer (Nanodrop, Wilmington, Del., USA).
To account for variability in gene expression in the xenografts before agent treatments, RNA samples from the respective control groups were pooled proportionally. Each of the P276/FP acute treated xenograft was, therefore, compared with pooled acute control RNA samples and the same method was adopted for the chronically treated samples. For microarray hybridization, a total of 20 μg of RNA was used for cDNA synthesis, which was indirectly labeled with Cy3 (pooled control) or Cy5 (individual treated xenograft) fluorescent dyes as described (Chinnaiyan AM et. al., Am J. Pathol. 2001 October; 159(4): 1199-209). A 23,290 oligonucleotide array (Illumina, USA) was spotted using the OmniGrid™ Genemachines. The slides were processed by standard procedures and hybridization was performed in the two-channel mode. Post hybridization, the slides were washed and scanned using GeneTAC UC-4 and images obtained were analyzed using the GenePix Pro 5.1. The median of ratios of intensities (Cy5/Cy3) obtained from the two channels was subjected to Cluster analysis and viewed using the Treeview program. Median of ratios above 2 is considered as significant upregulation of the specific gene in the drug treated xenograft and a value below 0.5 is considered as downregulation of the specific gene in the drug treated xenograft.
A total of 16 hybridizations representing 10 acute treatments (FIG. 1A) and 6 chronic treatments (FIG. 1B) were analyzed. Individual hybridizations were numbered according to acute (A) or chronic (C) treatment followed by the animal number and the respective agent used. For example, A20 (P276) identifies acute treated xenograft with P276-00 in the animal numbered 20.
The values represent the log of median of ratio for IFNE1 gene across different xenografts treated with either P276-00 or Flavopiridol. As mentioned before, a ratio value above 1 indicates a two-fold increase in the gene levels. The Cluster analysis identifies upregulation of IFNE1 consistently across both acute (Table 1A) and chronic (Table 1B) treatments of HCT116 xenografts.

[2] = test system: IFNE1 mRNA in Calu-1 cells; test: QRT-PCR of IFNE1 level in Calu-1 cells treated with P276-00 or Flavopiridol; type: cell-based, human; conditions: at most time points (4, 8, 12, 24, 48 hours)
Protocol: (§1) FIGS. 3A, 3B and 3C show expression of IFNE1 in different cancer cell lines treated with P276-00 and Flavopiridol. The different cell lines were treated with the agent for the indicated times and the level of IFNE1 mRNA were estimated using Real Time RT-PCR. Using the Actin gene for normalization, IFNE1 expression level was plotted as log fold change relative to the signal from the control untreated cells.
(§2) The expression of IFNE1 in response to P276-00 or Flavopiridol was also studied in different cancer cell lines such as HCT116, HL-60 (leukemia) and Calu-1. HCT116, Calu-1, H460 and HL-60 cells were obtained from ATCC and were maintained in culture medium with 10% fetal bovine serum. P276-00 and Flavopiridol were synthesized in-house and 10 mM stocks in DMSO were used for the assays. HCT116 (FIG. 3A) cells in culture were treated with P276-00 and Flavopiridol at 200 nM and 250 nM respectively for 6 hours, 12 hours and 24 hours. HL-60 (FIG. 3B) cells were treated with 300 nM of P276-00 and […] of Flavopiridol for 3 hours, 6 hours, 12 hours and 24 hours and Calu-1 (FIG. 3C) cells were treated with 1.2 μM of P276-00 and 450 nM of Flavopiridol for 4 hours, 8 hours, 12 hours, 24 hours and 48 hours. RNA was prepared from the samples and QRT-PCR was performed to estimate level of IFNE1.

[3] = test system: IFNE1 mRNA in HCT116 cells; test: QRT-PCR of IFNE1 level in HCT116 cells treated with P276-00 or Flavopiridol; type: cell-based, human; conditions: for IFNE1 level relative to control untreated cells: at most time points (6, 12, 24 hours)
Protocol: as §1, §2

Row | Compound | log of median of ratio for IFNE1 gene ([1]; acute treatment, xenograft A3, Flavopiridol 2.5 mg/kg, log base 2 vs pooled control) | log of median of ratio for IFNE1 gene ([1]; acute treatment, xenograft A6, Flavopiridol 2.5 mg/kg, log base 2 vs pooled control) | log of median of ratio for IFNE1 gene ([1]; acute treatment, xenograft A9, Flavopiridol 2.5 mg/kg, log base 2 vs pooled control) | log of median of ratio for IFNE1 gene ([1]; acute treatment, xenograft A15, Flavopiridol 2.5 mg/kg, log base 2 vs pooled control) | log of median of ratio for IFNE1 gene ([1]; acute treatment, xenograft A22, Flavopiridol 2.5 mg/kg, log base 2 vs pooled control) | log of median of ratio for IFNE1 gene ([1]; chronic treatment, xenograft C6, Flavopiridol, log base 2 vs pooled control) | log of median of ratio for IFNE1 gene ([1]; chronic treatment, xenograft C9, Flavopiridol, log base 2 vs pooled control) | log of median of ratio for IFNE1 gene ([1]; chronic treatment, xenograft C15, Flavopiridol, log base 2 vs pooled control) | IFNE1 level relative to control untreated cells [2] | IFNE1 up-regulation, log fold change relative to control untreated cells ([3]; 12 hours, normalized to Actin) | IFNE1 level relative to control untreated cells [3] | log of median of ratio for IFNE1 gene ([1]; acute treatment (two consecutive days), xenograft A20, P276-00 35 mg/kg, log base 2 of Cy5/Cy3 vs pooled control) | log of median of ratio for IFNE1 gene ([1]; acute treatment, xenograft A2, P276-00 35 mg/kg, log base 2 vs pooled control) | log of median of ratio for IFNE1 gene ([1]; acute treatment, xenograft A5, P276-00 35 mg/kg, log base 2 vs pooled control) | log of median of ratio for IFNE1 gene ([1]; acute treatment, xenograft A11, P276-00 35 mg/kg, log base 2 vs pooled control) | log of median of ratio for IFNE1 gene ([1]; acute treatment, xenograft A23, P276-00 35 mg/kg, log base 2 vs pooled control) | log of median of ratio for IFNE1 gene ([1]; chronic treatment (6-7 days consecutively), xenograft C17, P276-00, log base 2 vs pooled control) | log of median of ratio for IFNE1 gene ([1]; chronic treatment, xenograft C11, P276-00, log base 2 vs pooled control) | log of median of ratio for IFNE1 gene ([1]; chronic treatment, xenograft C23, P276-00, log base 2 vs pooled control)
1 | CN1CC[C@H](c2c(O)cc(O)c3c(=O)cc(-c4ccccc4Cl)oc23)[C@H](O)C1 [Flavopiridol] | 2.017 | 1.121 | 1.568 | 1.228 | 1.17 | 2.731 | 1.723 | 1.595 | significant increase | up to 7 log fold changes | significant increase | – | – | – | – | – | – | – | –
2 | CN1CC[C@@H](c2c(O)cc(O)c3c(=O)cc(-c4ccccc4Cl)oc23)[C@@H]1CO.Cl [Compound P276-00, (+)-trans-2-(2-Chloro-phenyl)-5,7-dihydroxy-8-(2-hydroxymethyl-1-methyl-pyrrolidin-3-yl)-chromen-4-one hydrochloride] | – | – | – | – | – | – | – | – | significant increase | – | significant increase | 2.26 | 1.107 | 1.966 | 2.053 | 3.252 | 0.7715 | 1.318 | 1.326
